Experiment: xn = mol fraction of the nth substance listed
Details: 101.3 kPa

NCCNCCN + CCCC[n+]1ccn(C)c1.F[B-](F)(F)F
viscosity [mPa·s]
Details | 298.15 K | 303.15 K | 308.15 K | 313.15 K | 318.15 K | 323.15 K | 328.15 K | 333.15 K
x2 = 0 | – | 4.5 | 3.86 | 3.4 | 3.05 | 2.7 | 2.45 | 2.032
x2 = 0.051 | 6.71 | 5.56 | 4.85 | 4.31 | – | 3.55 | 3.2 | 2.67
x2 = 0.1986 | 12.1 | 10.27 | 8.94 | – | 7.06 | 6.33 | 5.68 | –
x2 = 0.2998 | 17.35 | – | – | 10.9 | 9.7 | – | – | –
x2 = 0.3995 | – | 19.78 | 16.7 | – | 12.77 | – | – | 8.72
x2 = 0.4992 | 31.5 | – | 22.15 | – | 16.63 | 14.65 | – | –
x2 = 0.5905 | – | – | 28.1 | 24.07 | 20.88 | – | 15.53 | 13.88
x2 = 0.6974 | 52.6 | – | 36.3 | – | 26.6 | 23.13 | – | –
x2 = 0.8012 | 67.1 | 56.4 | 46 | 38.8 | 33.2 | 28.5 | 23.39 | 21.3
x2 = 0.8948 | 82.6 | – | 55.7 | 46.5 | 39.2 | 33.3 | 26.7 | 24.18
x2 = 0.9496 | 91.9 | 76.4 | 60.4 | 49.8 | 42 | – | 27.2 | –

CCCC[n+]1ccn(C)c1.F[B-](F)(F)F + NCCNCCN
x1 = 1
Details | viscosity [mPa·s]
313.15 K | 51.4
318.15 K | 42.1
323.15 K | 34.8
333.15 K | 24.7

Source: a compilation of properties of binary mixtures (doi:10.1007/s10953-019-00868-0)
